From patent US5919782A, “Heterocyclic compounds having antidiabetic, hypolipidaemic, antihypertensive properties, process for their preparation and pharmaceutical compositions containing them” (Dr. Reddy's Research Foundation, priority 1996, dated 1999)
Where a name gives a salt, the structure may show the parent alone.

Experiments:
[1] = test system: C57 BL/KsJ-db/db mice; assay: blood sugar and triglycerides lowering activity in db/db mice; assay type: in vivo, mouse (male C57 BL/KsJ-db/db); conditions: for Reduction in Blood Glucose Level / Triglyceride Lowering: oral gavage daily for 6 days, db/db mice
Description: Mutation in colonies of laboratory animals and different sensitivities to dietary regimens have made the development of animal models with non-insulin dependent diabetes associated with obesity and insulin resistance possible. Genetic models such as db/db and ob/ob (See Diabetes, (1982) 31(1): 1-6) in mice and fa/fa and zucker rats have been developed by the various laboratories for understanding the pathophysiology of disease and testing the efficacy of new antidiabetic compounds (Diabetes, (1983) 32: 830-838; Annu. Rep. Sankyo Res. Lab. (1994). 46: 1-57). The homozygous animals, C57 BL/KsJ-db/db mice developed by Jackson Laboratory, US, are obese, hyperglycemic, hyperinsulinemic and insulin resistant (J. Clin. Invest., (1990) 85: 962-967), whereas heterozygous are lean and normoglycemic. In db/db model, mice progressively develop insulinopenia with age, a feature commonly observed in late stages of human type II diabetes when blood sugar levels are insufficiently controlled. The state of pancreas and its course vary according to the models. Since this model resembles that of type II diabetes mellitus, the compounds of the present invention were tested for blood sugar and triglycerides lowering activities.
Male C57 BL/KsJ-db/db mice of 8 to 14 weeks age, having body weight range of 35 to 60 grams, procured from the Jackson Laboraotory, USA, were used in the experiment. The mice were provided with standard feed (National Institute of Nutrition, Hyderabad, India) and acidified water, ad libitum. The animals having more than 300 mg/dl blood sugar were used for testing. The number of animals in each group was 4.
The random blood sugar and triglyceride levels were measured by collecting blood (100 μl) through orbital sinus, using heparinised capillary in tubes containing EDTA which was centrifuged to obtain plasma. The plasma glucose and triglyceride levels were measured spectrometrically, by glucose oxidase and glycerol-3-PO4 oxidase/peroxidase enzyme (Dr. Reddy's Lab. Diagnostic Division Kits, Hyderabad, India) methods respectively. On 6th day the blood samples were collected one hour after administration of test compounds/vehicle for assessing the biological activity.
Test compounds were suspended on 0.25% carboxymethyl cellulose or water (for water soluble compounds) and administered to test group at a dose of 10 to 30 mg/kg through oral gavage daily for 6 days. The control group received vehicle (dose 10 ml/kg).
The blood sugar and triglycerides lowering activities of the test compound was calculated according to the formula: [formula] ZC=Zero day control group value DC=Zero day treated group value
TC=Control group value on test day
DT=Treated group value on the test day

[2] = test system: rats; assay: Subacute toxicity in rats; assay type: in vivo; conditions: 100 mg/kg orally
Description: Groups of 20 rats, consisting of 10 males and 10 females, weighing between 120 to 140 gm, received orally 100 mg/kg of compound of Example 6 for 28 days. The behavioral changes and body weights were monitored daily. The rats were sacrificed on the 29th day and blood was collected for hematological and biochemical estimations. All vital organs were examined both macroscopically and microscopically.

Compound | Reduction in Blood Glucose Level ([1]; 10 mg/kg) [%] | Triglyceride Lowering ([1]; 10 mg/kg) [%] | Reduction in Blood Glucose Level ([1]; 30 mg/kg) [%] | Triglyceride Lowering ([1]; 30 mg/kg) [%] | also measured
O=C1NC(=O)C(=Cc2ccc(OC[C@@H]3CCCN3c3ccccn3)cc2)S1 [Example 6, 5-[4-[[1-(Pyridin-2-yl)-(2S)-pyrrolidin-2-yl]methoxy]phenylmethylene]thiazolidine-2,4-dione, maleic acid salt] | 49 | 71 | – | – | gross macroscopic and microscopic changes of heart, lungs, bone marrow, kidneys and spleen ([2]; 28 days): No gross macroscopic and microscopic changes of heart, lungs, bone marrow, kidneys and spleen were observed; mortality ([2]; 28 days): did not produce any mortality; Organ Weight, Heart ([2]; 28 days, Control 0.59 ± 0.09): 0.61 ± 0.08 g; RBC ([2]; 28 days, Control 7.33 ± 0.75): 7.08 ± 0.93 × 10^6 /mm^3; WBC ([2]; 28 days, Control 8.08 ± 2.01): 9.19 ± 2.11 × 10^3 /mm^3; Hemoglobin ([2]; 28 days, Control 15.18 ± 0.69): 14.88 ± 0.46 gm/dl; PVC ([2]; 28 days, Control 52.06 ± 2.58): 52.21 ± 2.67%; hematological and biochemical parameters, deviations from control ([2]; end of 28 days treatment): no significant deviations from the control were observed in hematological and biochemical parameters
O=C1NC(=O)C(=Cc2ccc(OC[C@@H]3CCCN3c3ccccn3)cc2)S1 [Example 7, 5-[4-[[1-(Pyridin-2-yl)-(2S)-pyrrolidin-2-yl]methoxy]phenylmethylene]thiazolidine-2,4-dione, hydrochloride salt] | – | – | 67 | 43 | –
O=C1NC(=O)C(Cc2ccc(OC[C@@H]3CCCN3c3ccc4ccccc4n3)cc2)S1 (stereo partly drawn) [Example 12, 5-[4-[[1-(Quinolin-2-yl)-(2S)-pyrrolidin-2-yl]methoxy]phenylmethyl]thiazolidine-2,4-dione] | – | – | 27 | 49 | –
Cc1cc(N2CCC[C@H]2COc2ccc(CC3SC(=O)NC3=O)cc2)nc2ccccc12 (stereo partly drawn) [Example 20, 5-[4-[[1-(Lepidin-2-yl)-(2S)-pyrrolidin-2-yl]methoxy]phenylmethyl]thiazolidine-2,4-dione, sodium salt] | – | – | 30 | 62 | –
O=C1NC(=O)C(=Cc2ccc(O[C@H]3CCN(c4ccccn4)C3)cc2)S1 [Example 23, 5-[4-[1-(Pyridin-2-yl)-(3S)-pyrrolidin-3-yloxy]phenylmethylene]thiazolidine-2,4-dione, hydrochloride salt] | 46 | 10 | – | – | –
O=C1NC(=O)C(Cc2ccc(OCC3CN(c4ccccn4)CCO3)cc2)S1 (stereo not drawn) [Example 27, 5-[4-[[4-(Pyridin-2-yl)morpholin-2yl]methoxy]phenylmethyl]thiazolidine-2,4-dione, sodium salt] | 56 | 29 | – | – | –
Cc1c(C)c2c(c(C)c1O)CCC(C)(COc1ccc(CC3SC(=O)NC3=O)cc1)O2 (stereo not drawn) [Troglitazone, reference compound] | – | – | – | – | reduction in random blood sugar level ([1]; 100 mg/kg daily dose, standard drug, on 6th day): 28%
